From PubChem BioAssay (NCI)
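In this assay, cells in 96-well plates receive the compound at five concentrations for 48 hours. Endpoints are linearly interpolated between the surrounding concentrations. TGI: concentration producing complete growth inhibition.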

Columns and labels:
Assay in all cases: DTP human tumour cell line panel, 48 h
NCI-H226 lung = tested on: NCI-H226 lung
OVCAR-8 ovarian = tested on: OVCAR-8 ovarian
EKVX NSCLC = tested on: EKVX NSCLC
A549 NSCLC = tested on: A549 NSCLC
SF-268 CNS = tested on: SF-268 CNS
SK-MEL-2 melanoma = tested on: SK-MEL-2 melanoma
LXFL 529 NSCLC = tested on: LXFL 529 NSCLC
K-562 leukemia = tested on: K-562 leukemia
HOP-92 NSCLC = tested on: HOP-92 NSCLC
IGROV1 ovarian = tested on: IGROV1 ovarian
DMS 273 small cell lung = tested on: DMS 273 small cell lung
CCRF-CEM leukemia = tested on: CCRF-CEM leukemia
NCI-H522 lung = tested on: NCI-H522 lung
786-0 renal = tested on: 786-0 renal
SF-295 CNS = tested on: SF-295 CNS
LOX IMVI melanoma = tested on: LOX IMVI melanoma
SW-620 colon = tested on: SW-620 colon
MALME-3M melanoma = tested on: MALME-3M melanoma
RXF-631 renal = tested on: RXF-631 renal
SK-MEL-28 melanoma = tested on: SK-MEL-28 melanoma
ACHN renal = tested on: ACHN renal
MOLT-4 leukemia = tested on: MOLT-4 leukemia
NCI-H23 lung = tested on: NCI-H23 lung
SK-MEL-5 melanoma = tested on: SK-MEL-5 melanoma
XF 498 CNS = tested on: XF 498 CNS
HT29 colon = tested on: HT29 colon
M14 melanoma = tested on: M14 melanoma
SR leukemia = tested on: SR leukemia
DLD-1 colon = tested on: DLD-1 colon
HOP-62 NSCLC = tested on: HOP-62 NSCLC
OVCAR-5 ovarian = tested on: OVCAR-5 ovarian
M19-MEL melanoma = tested on: M19-MEL melanoma
CAKI-1 renal = tested on: CAKI-1 renal
A498 renal = tested on: A498 renal
U251 CNS = tested on: U251 CNS
OVCAR-4 ovarian = tested on: OVCAR-4 ovarian
SNB-19 CNS = tested on: SNB-19 CNS
SK-OV-3 ovarian = tested on: SK-OV-3 ovarian
DMS 114 small cell lung = tested on: DMS 114 small cell lung
HL-60(TB) leukemia = tested on: HL-60(TB) leukemia
SF-539 CNS = tested on: SF-539 CNS
KM20L2 colon = tested on: KM20L2 colon
UO-31 renal = tested on: UO-31 renal
SNB-78 CNS = tested on: SNB-78 CNS
UACC-257 melanoma = tested on: UACC-257 melanoma
KM12 colon = tested on: KM12 colon
RXF 393 renal = tested on: RXF 393 renal
SN12C renal = tested on: SN12C renal
TK-10 renal = tested on: TK-10 renal
UACC-62 melanoma = tested on: UACC-62 melanoma
NCI-H460 lung = tested on: NCI-H460 lung
COLO 205 colon = tested on: COLO 205 colon
HCT-116 colon = tested on: HCT-116 colon
RPMI-8226 leukemia = tested on: RPMI-8226 leukemia
SNB-75 CNS = tested on: SNB-75 CNS
HCC-2998 colon = tested on: HCC-2998 colon
HCT-15 colon = tested on: HCT-15 colon
OVCAR-3 ovarian = tested on: OVCAR-3 ovarian
HOP-18 NSCLC = tested on: HOP-18 NSCLC

Measured: TGI

O=c1[nH]c(=O)n(C2CC(O)C(CO)O2)cc1/C=C/Br (stereo unspecified)
not listed: COLO 205 colon | HCT-116 colon | RPMI-8226 leukemia | SNB-75 CNS | HCC-2998 colon | HCT-15 colon | OVCAR-3 ovarian | HOP-18 NSCLC
> 100 µM: all other assays above

CCOC(=O)C(C(=O)OCC)P(=S)(S)c1ccccc1 (stereo unspecified)
not listed: M14 melanoma | SNB-78 CNS | HCT-116 colon | RPMI-8226 leukemia | SNB-75 CNS | HCC-2998 colon | HCT-15 colon | OVCAR-3 ovarian | HOP-18 NSCLC
> 100 µM: all other assays above

CCOC(=O)c1ccc(O)cc1
not listed: OVCAR-8 ovarian | LXFL 529 NSCLC | SK-MEL-5 melanoma | A498 renal | SN12C renal | OVCAR-3 ovarian | HOP-18 NSCLC
> 100 µM: all other assays above

CCOC(=O)c1ccc(N=Cc2ccc(N(CCC#N)CCC#N)cc2)cc1
not listed: SR leukemia | U251 CNS | KM12 colon | HCC-2998 colon | HOP-18 NSCLC
> 100 µM: all other assays above

N#CC(C(=O)C(N)=O)c1ccccc1Cl (stereo unspecified)
not listed: HOP-92 NSCLC | NCI-H522 lung | SR leukemia | HOP-62 NSCLC | SNB-78 CNS
> 100 µM: all other assays above
